Results published in patent US7148232B2, “Oxazolo, thiazolo and selenazolo [4,5-c]-quinolin-4-amines and analogs thereof” (3M Innovative Properties Company, priority 1998, dated 2006).
Several values for one entry are separate records, joined by “and”; a condition that tells them apart may be missing. Equal entries are not always repeated.

Tests used:
[1] = test system: interferon (α); test: Interferon (α) induction in human cells (in vitro human blood cell system, interferon by bioassay); type: cell-based; conditions: human PBM's, 48 hours
Experimental: An in vitro human blood cell system was used to assess interferon induction by compounds of the invention. Activity is based on the measurement of interferon secreted into culture media. Interferon is measured by bioassay.
Whole blood is collected by venipuncture into EDTA vacutainer tubes. Peripheral blood mononuclear cells (PBM's) are separated from whole blood by using either LeucoPREP™ Brand Cell Separation Tubes (available from Becton Dickinson) or Ficoll-Paque® solution (available from Pharmacia LKB Biotechnology Inc, Piscataway, N.J.). […] 200 μL portions of PBM suspension are added to 96 well (flat bottom) sterile tissue culture plates (Becton Dickinson Labware, Lincoln Park, N.J.).
The compounds are solubilized in ethanol, dimethyl sulfoxide or tissue culture water then diluted with tissue culture water, 0.01N sodium hydroxide or 0.01N hydrochloric acid (The choice of solvent will depend on the chemical characteristics of the compound being tested.). Ethanol or DMSO concentration should not exceed a final concentration of 1% for addition to the culture wells. Compounds are initially tested in a concentration range of from about 0.1 μg/mL to about 5 μg/mL. Compounds which show induction at a concentration of 0.5 μg/mL are then tested in a wider concentration range.
The solution of test compound is added in a volume (less than or equal to 50 μL) to the wells containing 200 μL of diluted whole blood or of PBM's in media. Solvent and/or media is added to control wells (wells with no test compound) and as needed to adjust the final volume of each well to 250 μL. The plates are covered with plastic lids, vortexed gently and then incubated for 48 hours at 37° C. with a 5% carbon dioxide atmosphere.
Following incubation, the plates are covered with parafilm and then centrifuged at 1000 rpm for 10 to 15 minutes at 4° C. in a Damon IEC Model CRU-5000 centrifuge. Media (about 200 μL) is removed from 4 to 8 wells and pooled into 2 mL sterile freezing vials. Samples are maintained at −70° C. until analysis.
Interferon is determined by bioassay using A549 human lung carcinoma cells challenged with encephalomyocarditis. The details of the bioassay method have been described by G. L. Brennan and L. H. Kronenberg in “Automated Bioassay of Interferons in Micro-test Plates”, Biotechniques, June/Jul. […] The incubated cells are infected with an inoculum of encephalomyocarditis virus. The infected cells are incubated for an additional period at 37° C. before quantifying for viral cytopathic effect. The viral cytopathic effect is quantified by staining followed by spectrophotometric absorbance measurements. Results are expressed as alpha reference units/mL based on the value obtained for NIH HU IF-L standard.
Compounds of the invention were tested for their ability to induce interferon in human cells using the test method described above.

Cc1nc2c(N)nc3ccccc3c2s1 [Example 2, 2-Methylthiazolo[4,5-c]quinolin-4-amine]
Interferon (α) Induction in Human Cells ([1]; Dose Concentration 0.01 μg/mL): − | Interferon (α) Induction in Human Cells ([1]; Dose Concentration 0.05 μg/mL): − | Interferon (α) Induction in Human Cells ([1]; Dose Concentration 0.10 μg/mL): ± | Interferon (α) Induction in Human Cells ([1]; Dose Concentration 0.50 μg/mL): + | Interferon (α) Induction in Human Cells ([1]; Dose Concentration 1.0 μg/mL): + | Interferon (α) Induction in Human Cells ([1]; Dose Concentration 5.0 μg/mL): + | melting point: 184 to 187 °C and 184 to 186 °C

Cc1nc2c(N)nc3ccccc3c2s1.Cl [Example 4, 2-Methylthiazolo[4,5-c]quinolin-4-amine Hydrochloride]
Interferon (α) Induction in Human Cells ([1]; Dose Concentration 0.01 μg/mL): − | Interferon (α) Induction in Human Cells ([1]; Dose Concentration 0.05 μg/mL): − | Interferon (α) Induction in Human Cells ([1]; Dose Concentration 0.10 μg/mL): − | Interferon (α) Induction in Human Cells ([1]; Dose Concentration 0.50 μg/mL): + | Interferon (α) Induction in Human Cells ([1]; Dose Concentration 1.0 μg/mL): + | Interferon (α) Induction in Human Cells ([1]; Dose Concentration 5.0 μg/mL): + | melting point: 323 to 325 °C

CCc1nc2c(N)nc3ccccc3c2s1 [Example 8, 2-Ethylthiazolo[4,5-c]quinolin-4-amine]
Interferon (α) Induction in Human Cells ([1]; Dose Concentration 0.01 μg/mL): − | Interferon (α) Induction in Human Cells ([1]; Dose Concentration 0.05 μg/mL): − | Interferon (α) Induction in Human Cells ([1]; Dose Concentration 0.10 μg/mL): − | Interferon (α) Induction in Human Cells ([1]; Dose Concentration 0.50 μg/mL): + | Interferon (α) Induction in Human Cells ([1]; Dose Concentration 1.0 μg/mL): + | Interferon (α) Induction in Human Cells ([1]; Dose Concentration 5.0 μg/mL): + | melting point: 170 to 172 °C and 169 to 171 °C

CCCCCc1nc2c(N)nc3ccccc3c2s1 [Example 16, 2-Pentylthiazolo[4,5-c]quinolin-4-amine]
Interferon (α) Induction in Human Cells ([1]; Dose Concentration 0.01 μg/mL): − | Interferon (α) Induction in Human Cells ([1]; Dose Concentration 0.05 μg/mL): − | Interferon (α) Induction in Human Cells ([1]; Dose Concentration 0.10 μg/mL): − | Interferon (α) Induction in Human Cells ([1]; Dose Concentration 0.50 μg/mL): − | Interferon (α) Induction in Human Cells ([1]; Dose Concentration 1.0 μg/mL): + | Interferon (α) Induction in Human Cells ([1]; Dose Concentration 5.0 μg/mL): + | melting point: 119 to 121 °C

Nc1nc2ccccc2c2sc(/C=C/c3ccccc3)nc12 [Example 22, 2-(2-Phenyl-1-ethenyl)thiazolo[4,5-c]quinolin-4-amine]
Interferon (α) Induction in Human Cells ([1]; Dose Concentration 0.01 μg/mL): − | Interferon (α) Induction in Human Cells ([1]; Dose Concentration 0.05 μg/mL): − | Interferon (α) Induction in Human Cells ([1]; Dose Concentration 0.10 μg/mL): − | Interferon (α) Induction in Human Cells ([1]; Dose Concentration 0.50 μg/mL): − | Interferon (α) Induction in Human Cells ([1]; Dose Concentration 1.0 μg/mL): − | Interferon (α) Induction in Human Cells ([1]; Dose Concentration 5.0 μg/mL): − | Interferon (α) Induction in Human Cells ([1]; Dose Concentration 10.0 μg/mL): + | Interferon (α) Induction in Human Cells ([1]; Dose Concentration 25.0 μg/mL): + | Interferon (α) Induction in Human Cells ([1]; Dose Concentration 50.0 μg/mL): + | melting point: 239 to 241 °C

CC(C)(Cc1nc2c(N)nc3ccccc3c2s1)OC(N)=O [Example 26, 2-(4-Aminothiazolo[4,5-c]quinolin-2-yl)-1,1-dimethylethyl Carbamate]
Interferon (α) Induction in Human Cells ([1]; Dose Concentration 0.01 μg/mL): − | Interferon (α) Induction in Human Cells ([1]; Dose Concentration 0.05 μg/mL): − | Interferon (α) Induction in Human Cells ([1]; Dose Concentration 0.10 μg/mL): − | Interferon (α) Induction in Human Cells ([1]; Dose Concentration 0.50 μg/mL): − | Interferon (α) Induction in Human Cells ([1]; Dose Concentration 1.0 μg/mL): − | Interferon (α) Induction in Human Cells ([1]; Dose Concentration 5.0 μg/mL): + | Interferon (α) Induction in Human Cells ([1]; Dose Concentration 10.0 μg/mL): + | Interferon (α) Induction in Human Cells ([1]; Dose Concentration 25.0 μg/mL): + | Interferon (α) Induction in Human Cells ([1]; Dose Concentration 50.0 μg/mL): + | melting point: 222 to 223 °C

CCOCc1nc2c(N)nc3ccccc3c2s1 [Example 28, 2-(Ethoxymethyl)thiazolo[4,5-c]quinoline-4-amine]
Interferon (α) Induction in Human Cells ([1]; Dose Concentration 0.01 μg/mL): − | Interferon (α) Induction in Human Cells ([1]; Dose Concentration 0.05 μg/mL): − | Interferon (α) Induction in Human Cells ([1]; Dose Concentration 0.10 μg/mL): − | Interferon (α) Induction in Human Cells ([1]; Dose Concentration 0.50 μg/mL): + | Interferon (α) Induction in Human Cells ([1]; Dose Concentration 1.0 μg/mL): + | Interferon (α) Induction in Human Cells ([1]; Dose Concentration 5.0 μg/mL): + | melting point: 149 to 151 °C

COCc1nc2c(N)nc3ccccc3c2s1 [Example 30, 2-(Methoxymethyl)thiazolo[4,5-c]quinolin-4-amine]
Interferon (α) Induction in Human Cells ([1]; Dose Concentration 0.01 μg/mL): − | Interferon (α) Induction in Human Cells ([1]; Dose Concentration 0.05 μg/mL): − | Interferon (α) Induction in Human Cells ([1]; Dose Concentration 0.10 μg/mL): − | Interferon (α) Induction in Human Cells ([1]; Dose Concentration 0.50 μg/mL): − | Interferon (α) Induction in Human Cells ([1]; Dose Concentration 1.0 μg/mL): + | Interferon (α) Induction in Human Cells ([1]; Dose Concentration 5.0 μg/mL): + | melting point: 183 to 185 °C

CC(C)Cc1nc2c(N)nc3ccccc3c2s1 [Example 32, 2-(2-Methylpropyl)thiazolo[4,5-c]quinolin-4-amine]
Interferon (α) Induction in Human Cells ([1]; Dose Concentration 0.01 μg/mL): − | Interferon (α) Induction in Human Cells ([1]; Dose Concentration 0.05 μg/mL): − | Interferon (α) Induction in Human Cells ([1]; Dose Concentration 0.10 μg/mL): ± | Interferon (α) Induction in Human Cells ([1]; Dose Concentration 0.50 μg/mL): + | Interferon (α) Induction in Human Cells ([1]; Dose Concentration 1.0 μg/mL): + | Interferon (α) Induction in Human Cells ([1]; Dose Concentration 5.0 μg/mL): + | melting point: 123 to 125 °C

CCCc1nc2c(N)nc3ccc(C)cc3c2s1 [Example 36, 8-Methyl-2-propylthiazolo[4,5-c]quinolin-4-amine]
Interferon (α) Induction in Human Cells ([1]; Dose Concentration 0.01 μg/mL): − | Interferon (α) Induction in Human Cells ([1]; Dose Concentration 0.05 μg/mL): − | Interferon (α) Induction in Human Cells ([1]; Dose Concentration 0.10 μg/mL): − | Interferon (α) Induction in Human Cells ([1]; Dose Concentration 0.50 μg/mL): − | Interferon (α) Induction in Human Cells ([1]; Dose Concentration 1.0 μg/mL): + | Interferon (α) Induction in Human Cells ([1]; Dose Concentration 5.0 μg/mL): + | melting point: 147 to 149 °C
